This note sets out measurements from patent publication US10494355B2, “Oxadiazole amine derivative compounds as histone deacetylase 6 inhibitor, and the pharmaceutical composition comprising the same” (Chong Kun Dang Pharmaceutical Corp., priority 2015, dated 2019).

Some results are limits rather than exact numbers.

One assay has as its target T1, human recombinant HDAC6 (Homo sapiens, UniProt Q9UBN7).
T1 construct: purchased Calbiochem 382180
T1 sequence (Q9UBN7 1-1215): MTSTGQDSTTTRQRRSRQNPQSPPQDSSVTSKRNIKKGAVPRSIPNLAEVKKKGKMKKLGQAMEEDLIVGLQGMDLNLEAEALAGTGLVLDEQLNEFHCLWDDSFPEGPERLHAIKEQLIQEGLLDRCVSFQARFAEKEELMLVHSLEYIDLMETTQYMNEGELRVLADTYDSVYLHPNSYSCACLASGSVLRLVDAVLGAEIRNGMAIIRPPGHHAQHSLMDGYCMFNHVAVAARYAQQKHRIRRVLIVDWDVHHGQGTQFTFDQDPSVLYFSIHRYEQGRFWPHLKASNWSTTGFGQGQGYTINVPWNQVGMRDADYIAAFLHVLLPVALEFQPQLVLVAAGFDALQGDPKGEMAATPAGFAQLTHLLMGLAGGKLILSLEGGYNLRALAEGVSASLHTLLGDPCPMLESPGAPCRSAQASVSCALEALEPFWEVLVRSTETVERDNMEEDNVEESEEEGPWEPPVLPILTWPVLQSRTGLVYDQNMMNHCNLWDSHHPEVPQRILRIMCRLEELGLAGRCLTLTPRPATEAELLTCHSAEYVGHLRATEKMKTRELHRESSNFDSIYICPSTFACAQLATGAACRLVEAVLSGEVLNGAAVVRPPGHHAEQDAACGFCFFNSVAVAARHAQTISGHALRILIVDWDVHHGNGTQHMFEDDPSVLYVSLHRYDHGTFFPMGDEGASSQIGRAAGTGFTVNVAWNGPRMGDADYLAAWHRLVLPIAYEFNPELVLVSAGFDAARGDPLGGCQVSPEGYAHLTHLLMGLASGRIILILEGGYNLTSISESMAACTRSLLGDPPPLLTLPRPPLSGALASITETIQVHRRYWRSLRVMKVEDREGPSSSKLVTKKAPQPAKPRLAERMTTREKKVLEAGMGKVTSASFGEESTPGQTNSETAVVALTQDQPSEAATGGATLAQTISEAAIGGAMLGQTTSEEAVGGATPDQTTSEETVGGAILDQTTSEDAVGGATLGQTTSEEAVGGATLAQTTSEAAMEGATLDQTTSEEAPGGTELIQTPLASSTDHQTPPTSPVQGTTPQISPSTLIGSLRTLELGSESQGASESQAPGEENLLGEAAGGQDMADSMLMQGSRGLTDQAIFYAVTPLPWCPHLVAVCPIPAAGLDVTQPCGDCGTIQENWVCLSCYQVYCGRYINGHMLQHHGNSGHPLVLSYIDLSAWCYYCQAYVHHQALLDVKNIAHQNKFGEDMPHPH
As to the kind of experiment: HDAC6 enzyme activity inhibition assay (HDAC Fluorimetric Drug Discovery Kit). Conditions: 30° C. 60 minutes. Format: biochemical. In outline:
(§1)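 Fluorescence (Ex 360, Em 460) after 30 min developer step; IC50 from dose-response. Reaction: 0.3 μg recombinant enzyme, 10 μM Fluor de Lys-SIRT1 substrate, 5-fold compound dilutions, 60 min at 30° C. Same protocol for both isoforms.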

The target of another assay is T2, human recombinant HDAC1 (Homo sapiens, UniProt Q13547).
T2 construct: purchased Enzo Life Science BML-SE456
In words: HDAC1 enzyme activity inhibition assay (HDAC Fluorimetric Drug Discovery Kit). In kind it is biochemical. Conditions: human recombinant HDAC1, 10 μM substrate, 30° C. 60 minutes. In a few lines:
as §1

T2 sequence (Q13547 whole entry): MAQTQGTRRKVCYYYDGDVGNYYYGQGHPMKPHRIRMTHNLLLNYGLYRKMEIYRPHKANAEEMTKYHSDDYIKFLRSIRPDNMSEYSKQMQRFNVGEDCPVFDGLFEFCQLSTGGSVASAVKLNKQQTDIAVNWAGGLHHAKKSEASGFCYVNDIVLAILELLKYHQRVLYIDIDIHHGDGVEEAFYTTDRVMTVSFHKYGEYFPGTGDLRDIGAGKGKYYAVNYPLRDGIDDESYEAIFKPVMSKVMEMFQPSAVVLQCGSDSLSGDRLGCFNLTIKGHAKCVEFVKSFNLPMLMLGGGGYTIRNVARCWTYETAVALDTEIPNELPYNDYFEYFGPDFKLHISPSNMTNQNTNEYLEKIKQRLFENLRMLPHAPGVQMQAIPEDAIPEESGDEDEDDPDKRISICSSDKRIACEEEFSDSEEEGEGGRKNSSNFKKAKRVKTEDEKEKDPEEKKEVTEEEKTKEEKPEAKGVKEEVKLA

As usually defined, the IC50 is the concentration that gives 50% inhibition. Take `COc1cccc(C2(Nc3ncc(-c4nnc(C(F)F)o4)cn3)CC2)c1` [Compound 2048, 5-(5-(difluoromethyl)-1,3,4-oxadiazol-2-yl)-N-(1-(3-methoxyphenyl)cyclopropyl)pyrimidin-2-amine]: the IC50 was 63 nM at human recombinant HDAC6 and more than 10000 nM at human recombinant HDAC1.
For `FC(F)(F)c1ccc(C2(Nc3ncc(-c4nnc(C(F)(F)F)o4)cn3)CC2)cc1` [Compound 1742, 5-(5-(trifluoromethyl)-1,3,4-oxadiazol-2-yl)-N-(1-(4-(trifluoromethyl)phenyl)cyclopropyl)pyrimidin-2-amine], in that order: 531 nM and more than 10000 nM.
In the same order, the values of `FC(F)c1nnc(-c2cnc(NC3(c4ccc(C5CCN(C6COC6)CC5)cc4)CCC3)nc2)o1` [Compound 2023, 5-(5-(difluoromethyl)-1,3,4-oxadiazol-2-yl)-N-(1-(4-(1-(oxetan-3-yl)piperidin-4-yl)phenyl)cyclobutyl)pyrimidin-2-amine] are 387 nM and more than 10000 nM.
For `Fc1cccc(C2(Nc3ncc(-c4nnc(C(F)F)o4)cn3)CCC2)c1F` [Compound 1827, 5-(5-(difluoromethyl)-1,3,4-oxadiazol-2-yl)-N-(1-(2,3-difluorophenyl)cyclobutyl)pyrimidin-2-amine], in that order: 43 nM and more than 10000 nM.
With `O=C(OCc1ccccc1)N1CCC(Nc2ncc(-c3nnc(C(F)F)o3)cn2)(c2ccccc2)CC1` [Compound 1677, Benzyl 4-((5-(5-(difluoromethyl)-1,3,4-oxadiazol-2-yl)pyrimidin-2-yl)amino)-4-phenylpiperidine-1-carboxylate], the IC50 at human recombinant HDAC6 is 267 nM; at human recombinant HDAC1, more than 10000 nM.
In the same order, the values of `Cc1ccccc1C1(Nc2ncc(-c3nnc(C(F)F)o3)cn2)CCC1` [Compound 1671, 5-(5-(difluoromethyl)-1,3,4-oxadiazol-2-yl)-N-(1-(o-tolyl)cyclobutyl)pyrimidin-2-amine] are 44 nM and more than 10000 nM.
For `FC(F)(F)c1cccc(C2(Nc3ncc(-c4nnc(C(F)(F)F)o4)cn3)CCC2)c1` [Compound 1670, 5-(5-(trifluoromethyl)-1,3,4-oxadiazol-2-yl)-N-(1-(3-(trifluoromethyl)phenyl)cyclobutyl)pyrimidin-2-amine], the concentration for half-maximal inhibition (IC50) is 596 nM on human recombinant HDAC6 and more than 10000 nM at human recombinant HDAC1.
In the same order, the values of `FC(F)c1nnc(-c2cnc(NC3(c4cccnc4)CCC3)nc2)o1` [Compound 1913, 5-(5-(difluoromethyl)-1,3,4-oxadiazol-2-yl)-N-(1-(pyridin-3-yl)cyclobutyl)pyrimidin-2-amine] are 40 nM and more than 10000 nM.
In the same order, the values of `FC(F)c1nnc(-c2cnc(NC3(c4cccc(C(F)(F)F)c4)CCC3)nc2)o1` [Compound 1642, 5-(5-(difluoromethyl)-1,3,4-oxadiazol-2-yl)-N-(1-(3-(trifluoromethyl)phenyl)cyclobutyl)pyrimidin-2-amine] are 57 nM and more than 10000 nM.
In the same order, the values of `FC(F)c1nnc(-c2cnc(NC3(c4cccc(C5CCN(C6COC6)CC5)c4)CCC3)nc2)o1` [Compound 2060, 5-(5-(difluoromethyl)-1,3,4-oxadiazol-2-yl)-N-(1-(3-(1-(oxetan-3-yl)piperidin-4-yl)phenyl)cyclobutyl)pyrimidin-2-amine] are 221 nM and more than 10000 nM.
As to `Fc1ccccc1C1(Nc2ncc(-c3nnc(C(F)F)o3)cn2)CCC1` [Compound 1609, 5-(5-(difluoromethyl)-1,3,4-oxadiazol-2-yl)-N-(1-(2-fluorophenyl)cyclobutyl)pyrimidin-2-amine], the 50% inhibitory concentration (IC50) at human recombinant HDAC6 is 23 nM; at human recombinant HDAC1, more than 10000 nM.
In the same order, the values of `FC(F)(F)c1nnc(-c2cnc(NC3(c4ccc(Cl)c(Cl)c4)CCC3)nc2)o1` [Compound 1835, N-(1-(3,4-dichlorophenyl)cyclobutyl)-5-(5-(trifluoromethyl)-1,3,4-oxadiazol-2-yl)pyrimidin-2-amine] are 1960 nM and more than 10000 nM.
In the same order, the values of `FC(F)(F)c1nnc(-c2cnc(NC3(c4ccc(Cl)cc4Cl)CCC3)nc2)o1` [Compound 1837, N-(1-(2,4-dichlorophenyl)cyclobutyl)-5-(5-(trifluoromethyl)-1,3,4-oxadiazol-2-yl)pyrimidin-2-amine] are 2520 nM and more than 10000 nM.
For `FC(F)c1nnc(-c2cnc(NC3(c4ccccc4OC(F)(F)F)CCC3)nc2)o1` [Compound 2028, 5-(5-(difluoromethyl)-1,3,4-oxadiazol-2-yl)-N-(1-(2-(trifluoromethoxy)phenyl)cyclobutyl)pyrimidin-2-amine], in that order: 302 nM and more than 10000 nM.
Regarding `FC(F)c1nnc(-c2cnc(NC3(c4ccccc4)CCC3)nc2)o1` [Compound 1559, 5-(5-(difluoromethyl)-1,3,4-oxadiazol-2-yl)-N-(1-phenylcyclobutyl)pyrimidin-2-amine], the values for the IC50 on human recombinant HDAC6 and on human recombinant HDAC1 were 30 nM and more than 10000 nM, respectively.
For `FC(F)c1nnc(-c2cnc(NC3(c4ccc(Cl)cc4Cl)CCC3)nc2)o1` [Compound 1836, N-(1-(2,4-dichlorophenyl)cyclobutyl)-5-(5-(difluoromethyl)-1,3,4-oxadiazol-2-yl)pyrimidin-2-amine], in that order: 200 nM and more than 10000 nM.
For `FC(F)(F)c1nnc(-c2cnc(NC3(c4cccc(Cl)c4)CC3)nc2)o1` [Compound 2051, N-(1-(3-chlorophenyl)cyclopropyl)-5-(5-(trifluoromethyl)-1,3,4-oxadiazol-2-yl)pyrimidin-2-amine], in that order: 152 nM and more than 10000 nM.
In the same order, the values of `Fc1cccc(C2(Nc3ncc(-c4nnc(C(F)F)o4)cn3)CC2)c1` [Compound 1713, 5-(5-(difluoromethyl)-1,3,4-oxadiazol-2-yl)-N-(1-(3-fluorophenyl)cyclopropyl)pyrimidin-2-amine] are 33 nM and more than 10000 nM.
For the compound `FC(F)c1nnc(-c2cnc(NC3(Cc4ccccc4)CCC3)nc2)o1` [Compound 2030, N-(1-benzylcyclobutyl)-5-(5-(difluoromethyl)-1,3,4-oxadiazol-2-yl)pyrimidin-2-amine], the IC50 on human recombinant HDAC6 is 758 nM; at human recombinant HDAC1 it was more than 10000 nM.
For `CCN1CCC(c2ccc(C3(Nc4ncc(-c5nnc(C(F)F)o5)cn4)CCC3)cc2)CC1` [Compound 2036, 5-(5-(difluoromethyl)-1,3,4-oxadiazol-2-yl)-N-(1-(4-(1-ethylpiperidin-4-yl)phenyl)cyclobutyl)pyrimidin-2-amine], the IC50 was 478 nM at human recombinant HDAC6 and more than 10000 nM at human recombinant HDAC1.
With `FC(F)(F)c1cccc(C2(Nc3ncc(-c4nnc(C(F)(F)F)o4)cn3)CC2)c1` [Compound 1741, 5-(5-(trifluoromethyl)-1,3,4-oxadiazol-2-yl)-N-(1-(3-(trifluoromethyl)phenyl)cyclopropyl)pyrimidin-2-amine], the figures for the IC50 at human recombinant HDAC6 and on human recombinant HDAC1 were 450 nM and more than 10000 nM, respectively.
For `Fc1ccc(C2(Nc3ncc(-c4nnc(C(F)(F)F)o4)cn3)CC2)cc1F` [Compound 1780, N-(1-(3,4-difluorophenyl)cyclopropyl)-5-(5-(trifluoromethyl)-1,3,4-oxadiazol-2-yl)pyrimidin-2-amine], in that order: 420 nM and more than 10000 nM.
